According to US10377791B2, “Therapeutically active estratrienthiazole derivatives as inhibitors of 17 B-hydroxysteroid dehydrogenase, type 1” (FORENDO PHARMA LTD, priority 2013, dated 2019):
Read-outs that look alike come from different tables or passages of the source.

Experiments:
[1] = target: T1, recombinant human 17β-HSD1 (Homo sapiens, UniProt P14061); assay: Inhibition of recombinant human 17β-HSD1; assay type: biochemical; conditions: read-out: 17β-HDS1 Inhibition % at 1 μM
T1 construct: made in house; host or cells: Sd9 (Sf9) insect cells, baculovirus (Bac to Bac Expression System)
T1 sequence (P14061 1-328): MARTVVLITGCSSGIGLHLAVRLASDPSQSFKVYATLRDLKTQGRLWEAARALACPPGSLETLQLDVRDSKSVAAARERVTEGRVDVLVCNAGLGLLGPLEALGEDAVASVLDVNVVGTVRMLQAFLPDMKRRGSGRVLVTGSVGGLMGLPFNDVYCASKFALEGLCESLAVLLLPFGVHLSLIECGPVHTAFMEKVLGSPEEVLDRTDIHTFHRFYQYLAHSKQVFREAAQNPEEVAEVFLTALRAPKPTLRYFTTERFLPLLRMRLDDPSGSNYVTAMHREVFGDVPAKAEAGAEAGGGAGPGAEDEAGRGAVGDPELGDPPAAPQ
Experimental: Recombinant baculovirus was generated by the “Bac to Bac Expression System” (Invitrogen). Recombinant bacmid was transfected to Sd9 insect cells using “Cellfectin Reagent” (Invitrogen). 60 h later cells were harvested; the microsomal fraction was isolated as described by Puranen, T. J., Poutanen, M. H., Peltoketo, H. E., Vihko, P. T. and Vihko, R. K. (1994) Site-directed mutagenesis of the putative active site of human 17 β-hydroxysteroid dehydrogenase type 1. Biochem. J. 304: 289-293. Aliquots were stored frozen until determination of enzymatic activity.
Recombinant protein (1 μg/ml) was incubated in 20 mM KH2PO4 pH 7.4 with 30 nM estrone (including 800 000 cpm/ml of ^3H-estrone) and 1 mM NADPH for 30 min at RT, in the presence of the potential inhibitor at concentrations 1 μM or 0.1 μM. Inhibitor stock solutions were prepared in DMSO. Final concentration of DMSO was adjusted to 1% in all samples. The enzyme reaction was stopped by addition of 10% trichloroacetic acid (final concentration). Samples were centrifuged in a microtiter plate at 4000 rpm for 10 min. Supernatants were applied to reverse phase HPLC on a Waters Symmetry C18 column, equipped with a Waters Sentry Guard column. Isocratic HPLC runs were performed at RT at a flow rate of 1 ml/min in acetonitrile:water 48:52 as running solvent. Radioactivity was monitored in the eluate by a Packard Flow Scintillation Analyzer. Total radioactivity for estrone and estradiol were determined in each sample and percent conversion of estrone to estradiol was calculated according to the following formula:
(§1) [formula] Percent inhibition was calculated flowingly: % inhibition=100−% conversion

[2] = target: T2, recombinant human 17β-HSD2 (Homo sapiens, UniProt P37059); assay: Inhibition of recombinant human 17β-HSD2; assay type: biochemical; conditions: read-out: 17β-HSD2 Inhibition % at 1 μM
T2 construct: made in house; host or cells: Sd9 (Sf9) insect cells, baculovirus (Bac to Bac Expression System)
T2 sequence (P37059 1-387): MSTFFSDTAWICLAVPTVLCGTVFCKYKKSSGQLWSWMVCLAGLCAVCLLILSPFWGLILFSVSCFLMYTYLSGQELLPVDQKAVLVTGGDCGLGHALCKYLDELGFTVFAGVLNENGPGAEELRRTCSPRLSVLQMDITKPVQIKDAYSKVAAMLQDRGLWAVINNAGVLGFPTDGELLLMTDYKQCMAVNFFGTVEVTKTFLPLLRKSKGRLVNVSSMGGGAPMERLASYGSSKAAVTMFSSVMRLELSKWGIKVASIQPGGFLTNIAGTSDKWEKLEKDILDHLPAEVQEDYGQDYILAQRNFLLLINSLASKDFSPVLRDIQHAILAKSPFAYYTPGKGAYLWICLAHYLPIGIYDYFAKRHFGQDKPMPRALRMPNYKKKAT
Experimental: Similarly to 17β-HSD1 the Recombinant baculovirus was generated by the “Bac to Bac Expression System” (Invitrogen). Recombinant bacmid was transfected to Sd9 insect cells using “Cellfectin Reagent” (Invitrogen). 60 h later cells were harvested and supernatant were fractionated by the following protocol: • cells were dissolved into 40 ml of A-buffer (40 mM TRIS, pH8.0, 20% glycerol, 20 μM NAD, 0.4 mM PMSF, 150 mM NaCl, 0.5% dodecyl-β-maltoside+protease inhibitor cocktail) • cells were sonicated • lysate was incubated on ice for 15 min • lysate was centrifuged 5000 rpm 15 min, +4° C. • centrifugation of the supernatant 180 000 g 30 min, +4° C. • pellet was dissolved into 8 ml of A-buffer • not resuspended material was removed by centrifugation 5000 rpm 15 min, +4° C. • the clear supernatant was divided into 100 μl aliquots and were stored frozen until determination of enzymatic activity.
The amount of 17β-HSD2 was analysed by immunoblotting and total protein concentration of each extract batch was determined.
Recombinant protein (4 μg/ml) was incubated in 20 mM KH2PO4 pH 8.5 with 50 nM estradiol (including 800 000 cpm/ml of ^3H-estradiol) and 1 mM NADH for 30 min at RT, in the presence of the potential inhibitor at concentrations 1 μM or 0.1 μM. Inhibitor stock solutions were prepared in DMSO. Final concentration of DMSO was adjusted to 1% in all samples. The enzyme reaction was stopped by addition of 10% trichloroacetic acid (final concentration). Samples were centrifuged in a microtiter plate at 4000 rpm for 10 min. Supernatants were applied to reverse phase HPLC on a Waters Symmetry C18 column, equipped with a Waters Sentry Guard column. Isocratic HPLC runs were performed at RT at a flow rate of 1 ml/min in acetonitrile:water 48:52 as running solvent. Radioactivity was monitored in the eluate by a Packard Flow Scintillation Analyzer. Total radioactivity for estrone and estradiol were determined in each sample and percent conversion of estradiol to estrone was calculated according to the following formula:
as §1

[3] = inhibitor at 1 μM, 30 nM estrone, 1 mM NADPH, 30 min at RT
[4] = inhibitor at 1 μM, 50 nM estradiol, 1 mM NADH, 30 min at RT

Row | Compound | inhibition at 1 µM [1, 3] | inhibition at 1 µM [2, 4] | inhibition at 1 µM [1] | inhibition at 1 µM [2]
1 | Cc1ccc(S(=O)(=O)Oc2ccc3c(c2)CCC2C3CC[C@]3(C)C(=O)C[C@@H](CCC(=O)Nc4ncc(C)s4)C23)cc1 (stereo partly drawn) [Compound 27, Toluene-4-sulphonic acid (13S,15R)-13-methyl-15-[2-(5-methylthiazol-2-ylcarbamoyl)-ethyl]-17-oxo-7,8,9,11,12,13,14,15,16,17-decahydro-6H-cyclopenta[a]phenanthren-3-yl ester] | 81% | 5% | – | –
2 | Cc1cnc(NC(=O)CC[C@@H]2CC(=O)[C@@]3(C)CCC4c5cc(C(C)(C)C)c(O)cc5CCC4C23)s1 (stereo partly drawn) [Compound 31, 3-((13S,15R)-2-(tert-butyl)-3-hydroxy-13-methyl-17-oxo-7,8,9,11,12,13,14,15,16,17-decahydro-6H-cyclopenta[a]phenanthren-15-yl)-N-(5-methylthiazol-2-yl)propanamide] | 87% | 12% | – | –
3 | Cc1cnc(NC(=O)CC[C@@H]2CC(=O)[C@@]3(C)CCC4c5cc(C(C)C)c(O)cc5CCC4C23)s1 (stereo partly drawn) [Compound 32, 3-((13S,15R)-3-hydroxy-2-isopropyl-13-methyl-17-oxo-7,8,9,11,12,13,14,15,16,17-decahydro-6H-cyclopenta[a]phenanthren-15-yl)-N-(5-methylthiazol-2-yl)propanamide] | 84% | 1% | – | –
4 | COc1cc2c(cc1C(C)=O)C1CC[C@]3(C)C(=O)C[C@@H](CCC(=O)Nc4ncc(C)s4)C3C1CC2 (stereo partly drawn) [Compound 33, 3-((13S,15R)-2-acetyl-3-methoxy-13-methyl-17-oxo-7,8,9,11,12,13,14,15,16,17-decahydro-6H-cyclopenta[a]phenanthren-15-yl)-N-(5-methylthiazol-2-yl)propanamide] | 71% | 3% | – | –
5 | Cc1cnc(NC(=O)CC[C@@H]2CC(=O)[C@@]3(C)CCC4c5cc([N+](=O)[O-])c(O)cc5CCC4C23)s1 (stereo partly drawn) [Compound 34, 3-((13S,15R)-3-hydroxy-13-methyl-2-nitro-17-oxo-7,8,9,11,12,13,14,15,16,17-decahydro-6H-cyclopenta[a]phenanthren-15-yl)-N-(5-methylthiazol-2-yl)propanamide] | 91% | 10% | – | –
6 | Cc1cnc(NC(=O)CC[C@@H]2CC(=O)[C@@]3(C)CCC4c5cc([N+](=O)[O-])c(O)c([N+](=O)[O-])c5CCC4C23)s1 (stereo partly drawn) [Compound 36, 3-((13S,15R)-3-hydroxy-13-methyl-2,4-dinitro-17-oxo-7,8,9,11,12,13,14,15,16,17-decahydro-6H-cyclopenta[a]phenanthren-15-yl)-N-(5-methylthiazol-2-yl)propanamide] | – | – | 87% | 33%
7 | Cc1cnc(NC(=O)CC[C@@H]2CC(=O)[C@@]3(C)CCC4c5cc(N)c(O)cc5CCC4C23)s1 (stereo partly drawn) [Compound 37, 3-((13S,15R)-2-amino-3-hydroxy-13-methyl-17-oxo-7,8,9,11,12,13,14,15,16,17-decahydro-6H-cyclopenta[a]phenanthren-15-yl)-N-(5-methylthiazol-2-yl)propanamide] | 88% | 4% | – | –
8 | Cc1cnc(NC(=O)CC[C@@H]2CC(=O)[C@@]3(C)CCC4c5ccc(O)c(N)c5CCC4C23)s1 (stereo partly drawn) [Compound 38, 3-((13S,15R)-4-amino-3-hydroxy-13-methyl-17-oxo-7,8,9,11,12,13,14,15,16,17-decahydro-6H-cyclopenta[a]phenanthren-15-yl)-N-(5-methylthiazol-2-yl)propanamide] | 87% | 9% | – | –
9 | Cc1cnc(NC(=O)CC[C@@H]2CC(=O)[C@@]3(C)CCC4c5ccc(OS(C)(=O)=O)c([N+](=O)[O-])c5CCC4C23)s1 (stereo partly drawn) [Compound 39, (13S,15R)-13-methyl-15-(3-((5-methylthiazol-2-yl)amino)-3-oxopropyl)-4-nitro-17-oxo-7,8,9,11,12,13,14,15,16,17-decahydro-6H-cyclopenta[a]phenanthren-3-yl methanesulfonate] | 96% | 1% | – | –
10 | Cc1cnc(NC(=O)CC[C@@H]2CC(=O)[C@@]3(C)CCC4c5ccc(OS(C)(=O)=O)c(N)c5CCC4C23)s1 (stereo partly drawn) [Compound 40, (13S,15R)-4-amino-13-methyl-15-(3-((5-methylthiazol-2-yl)amino)-3-oxopropyl)-17-oxo-7,8,9,11,12,13,14,15,16,17-decahydro-6H-cyclopenta[a]phenanthren-3-yl methanesulfonate] | 75% | 1% | – | –
11 | Cc1cnc(NC(=O)CC[C@@H]2CC(=O)[C@@]3(C)CCC4c5cc(CN6CCOCC6)c(O)cc5CCC4C23)s1 (stereo partly drawn) [Compound 42, 3-((13S,15R)-3-hydroxy-13-methyl-2-(morpholinomethyl)-17-oxo-7,8,9,11,12,13,14,15,16,17-decahydro-6H-cyclopenta[a]phenanthren-15-yl)-N-(5-methylthiazol-2-yl)propanamide] | 90% | 0% | – | –
12 | Cc1cnc(NC(=O)CC[C@@H]2CC(=O)[C@@]3(C)CCC4c5cc(CN6CCOCC6)c(O)c([N+](=O)[O-])c5CCC4C23)s1 (stereo partly drawn) [Compound 43, 3-((13S,15R)-3-hydroxy-13-methyl-2-(morpholinomethyl)-4-nitro-17-oxo-7,8,9,11,12,13,14,15,16,17-decahydro-6H-cyclopenta[a]phenanthren-15-yl)-N-(5-methylthiazol-2-yl)propanamide] | 94% | 0% | – | –
13 | Cc1cnc(NC(=O)CC[C@@H]2CC(=O)[C@@]3(C)CCC4c5cc(CN(C)C)c(O)cc5CCC4C23)s1 (stereo partly drawn) [Compound 44, 3-((13S,15R)-2-((dimethylamino)methyl)-3-hydroxy-13-methyl-17-oxo-7,8,9,11,12,13,14,15,16,17-decahydro-6H-cyclopenta[a]phenanthren-15-yl)-N-(5-methylthiazol-2-yl)propanamide] | 91% | 2% | – | –
14 | Cc1cnc(NC(=O)CC[C@@H]2CC(=O)[C@@]3(C)CCC4c5cc(CN6CCCC6)c(O)cc5CCC4C23)s1 (stereo partly drawn) [Compound 45, 3-((13S,15R)-3-hydroxy-13-methyl-17-oxo-2-(pyrrolidin-1-ylmethyl)-7,8,9,11,12,13,14,15,16,17-decahydro-6H-cyclopenta[a]phenanthren-15-yl)-N-(5-methylthiazol-2-yl)propanamide] | 83% | 0% | – | –
